Measured values: publication PMC10537229, “Antimicrobial Peptides Originating from Expression Libraries of Aurelia aurita and Mnemiopsis leidyi Prevent Biofilm Formation of Opportunistic Pathogens” (Microorganisms, 2023)
“Also recorded” adds a separate entry of the source.

How the values were obtained:
S. aureus [1] = assay: Biofilm prevention in vitro assay (crystal violet, static); assay type: cell-based, Staphylococcus aureus; details: synthetic peptide 0.4-112.5 µg/mL, 18 h
Protocol: (§1) The opportunistic pathogenic bacteria K. oxytoca (DSM 7342, M5a1-type strain), P. aeruginosa PAO1 (DSM 1707, pathogenic-type strain), S. epidermidis RP62A (DSM 28319, clinical isolate from catheter sepsis), and S. aureus (DSM 11823, clinical isolate) were grown in 5 mL LB medium overnight at below-indicated temperatures. The cell concentrations of the overnight cultures were analyzed with Neubauer cell counting and set to 3 × 10^8 cells/mL using GC minimal medium (with 1% (v/v) glycerol and 0.3% (w/v) casamino acids) for K. oxytoca and Caso bouillon (17 g/L casein peptone, 3 g/L soybean peptone, 5 g/L NaCl, 2.5 g/L K2HPO4, and 2.5 g/L glucose) for the remaining strains in the crystal violet assay. Cultures were aliquoted in 96-well plates (180/195 µL for each cavity). Cell-free size-fractionated cell extracts (20 µL) and synthesized peptides (various concentrations, 5 µL) were added to the cultures. MTPs were closed with gas-permeable membranes (Breathe-Easy®, Diversified Biotech, Dedham, MA, USA) and incubated at 37 °C (P. aeruginosa, S. aureus, and S. epidermidis) or 30 °C (K. oxytoca) for 18 h without shaking. Three biological replicates were performed, each with eight technical replicates. Medium controls were performed for normalization. Biofilm formation was monitored and quantified using the crystal violet assay. Following an 18 h incubation period, the cell cultures were removed, and the wells underwent two washes with H2O. Biofilms that developed and adhered to the surfaces were subjected to staining using 200 μL of a 0.1% crystal violet solution (Carl Roth, Karlsruhe, Germany) for 10 min at room temperature (RT). The stained biofilms were left to air dry after eliminating the crystal violet solution through two H2O washes. A total of 200 μL of 96% ethanol was introduced into each stained well to solubilize the dye, and incubation at RT for 15 min followed. Biofilm formation was assessed by measuring the absorbance of resolved crystal violet at 590 nm with the plate reader Spectra max Plus 384 (Molecular Devices, Ismaning; Germany). The screening procedure is depicted in Figure S1.

K. oxytoca [2] = assay: Growth of planktonic-growing pathogens (turbidity at 600 nm); assay type: cell-based, Klebsiella oxytoca; details: 112.5 µg/mL peptide, LB, 18 h, 80 rpm, 30 °C; mean of 2 biological x 8 technical replicates; control 1.21326667
Protocol: (§2) In addition, the potential growth-inhibiting effects of synthetic peptides were tested on planktonic-growing pathogens. Again, 3 × 10^8 cells/mL diluted in LB medium were aliquoted in 96-well plates (200 µL for each cavity). Synthetic peptides were added to two selected final concentrations of 3.5 µg/mL and 112.5 µg/mL at the beginning of the experiment. MTPs were closed with gas-permeable membranes and gently shaken at 80 rpm and 37 °C (P. aeruginosa, S. aureus, and S. epidermidis) or 30 °C (K. oxytoca) for 18 h. A comparative endpoint determination (growth control, peptide control IDR-1018, and identified peptides) of the turbidity at 600 nm was measured with plate reader Spectra max Plus 384. An unpaired t-test was conducted as a statistical hypothesis test to determine the significance (p-value) of growth differences.

S. epidermidis = assay: as above; assay type: cell-based, Staphylococcus epidermidis; details: 112.5 µg/mL peptide, LB, 18 h, 80 rpm, 37 °C; mean of 2 biological x 8 technical replicates; control 1.3398
Protocol: as §2

S. epidermidis RP62A = assay: Biofilm prevention in vitro assay (crystal violet, static); assay type: cell-based, Staphylococcus epidermidis; details: 18 h; for reduction of S. epidermidis biofilm formation over concentration range / effect on S. epidermidis biofilm formation (in words): synthetic peptide 0.4-112.5 µg/mL; for reduction of S. epidermidis biofilm formation over concentration range: maximum or range of reduction
Protocol: as §1

P. aeruginosa = assay: Growth of planktonic-growing pathogens (turbidity at 600 nm); assay type: cell-based, Pseudomonas aeruginosa; details: 18 h; for turbidity (600 nm), P. aeruginosa: 112.5 µg/mL peptide, LB, 80 rpm, 37 °C, mean of 2 biological x 8 technical replicates, control 1.2788369
Protocol: as §2

K. oxytoca [3] = assay: Biofilm prevention in vitro assay (crystal violet, static); assay type: cell-based, Klebsiella oxytoca; details: 18 h; for reduction of K. oxytoca biofilm formation at 112.5 µg/mL: synthetic peptide at highest concentration 112.5 µg/mL
Protocol: as §1

S. aureus [4] = assay: Growth of planktonic-growing pathogens (turbidity at 600 nm); assay type: cell-based, Staphylococcus aureus; details: 18 h; for turbidity (600 nm), S. aureus: 112.5 µg/mL peptide, LB, 80 rpm, 37 °C, mean of 2 biological x 8 technical replicates, control 1.37192917
Protocol: as §2

P. aeruginosa PAO1 = assay: Biofilm prevention in vitro assay (crystal violet, static); assay type: cell-based, Pseudomonas aeruginosa; details: synthetic peptide 0.4-112.5 µg/mL, 18 h
Protocol: as §1

[5] = tested on: K. oxytoca, P. aeruginosa, S. epidermidis, and S. aureus; assay: Planktonic growth, statements on all pathogens; assay type: cell-based; details: 18 h; for effect on planktonic growth (in words), high concentration: 112.5 µg/mL, all strains
Protocol: as §2

biofilm cells = details: cited from earlier work
Protocol: (§3) The biofilm prevention was assayed parallel to the well-described 12 amino acids’ cationic AMP (VRLIVAVRIWRR), named IDR-1018 [19, 47, 48]. This innate defense component is derived from the natural bovine peptide Bactenecin and was reported to show antibiofilm activity against P. aeruginosa, E. coli, Acinetobacter baumannii, K. pneumoniae, Methicillin-resistant S. aureus, Salmonella Typhimurium, and Burkholderia cenocepacia. The inhibitory activity of IDR-1018 is based on the induced dispersal of cells from biofilms at very low peptide concentrations (0.8 µg/mL). The underlying ...

planktonic cells = details: weak direct antimicrobial activity on planktonic cells; cited from earlier work
Protocol: as §3

K. oxytoca M5aI = assay: Dynamic biofilm formation in microfluidic flow cell (Syto9, CLSM); assay type: cell-based, Klebsiella oxytoca; details: peptide 10 ng/channel, GC medium, flow 15 µL/h, 24 h, 30 °C, mean ± SD of four biological x four technical replicates; for biofilm thickness: medium control 11 ± 6 µm; for biofilm volume: medium control 112 ± 62 µm^3
Excerpt: The microfluidic flow cell system comprises a polymethyl methacrylate corpus with a single channel (1 × 8 × 0.1 mm). Two inlets and one outlet exist. A borosilicate glass (24 × 60 × 0.17 mm; Carl Roth, Karlsruhe, Germany) was fixed with the adhesive Black-Seal silicone (Weicon, Münster, Germany). Microliter syringes (Innovative Labor System GmbH, Stützenbach, Germany) were connected via polytetrafluoroethylene (PTFE) tubes (0.3 mm × 0.6 mm) (Bola, Grünsfeld, Germany) with the in- and outlets and clamped into a syringe pump (Model: 220) (KD Scientific, Holliston, MA, USA). The channel was sterilized by rinsing 70% EtOH for 24 h at a flow rate of 20 µL/h. Afterwards, the remaining ethanol was washed out with sterile water at 20 μL/h for 1 h. Subsequently, the channel was equilibrated with GC medium at 20 μL/h for 2 h. Inoculation was conducted with a cell suspension of 1 × 10^9 cells/mL, generated from an overnight culture of K. oxytoca M5aI. Initial cell adhesion was ensured by incubation at 30 °C for 1 h without any flow. Next, the channel was continuously rinsed at 15 μL/h with GC medium injected within the first inlet. The synthetic peptides IDR-1018 (biofilm-preventing control peptide, [47, 48], BiP_Aa_2, BiP_Aa_5, and BiP_Aa_6 were diluted in GC medium to a concentration of 25 µg/mL and injected within the second inlet. Thus, the final peptide concentration was 12.5 µg/mL, corresponding to 10 ng peptide within the 0.8 µL channel. Biofilm formation was conducted at a flow rate of 15 µL/h for 24 h at 30 °C. The biofilm formation of K. oxytoca M5aI was further studied without adding peptides. Four biological replicates were conducted for each treatment.
Biofilms were stained with the fluorescent dye Syto9 (488 nm) (Life Technologie, Carlsbad, CA, USA) and analyzed using the LSM 700 confocal laser scanning microscope (Zeiss, Oberkochen, Germany). Therefore, the microfluidic flow cells were washed with GC medium at 3 µL/min for 15 min. The channel was then filled with a 1:1000 dilution of the fluorescent dye Syto9 and incubated in the dark at RT for 30 min. Dye residues were removed by rinsing GC medium at 3 μL/min for 15 min. Four image stacks were recorded per flow cell with optical sections of 0.9 µm per z-step. The digital image acquisition, three-dimensional reconstruction, and calculation of the biofilm parameters were performed with the software “Zen Black” (version 14.0.22.201) (Zeiss, Oberkochen, Germany) and the microscopy image analysis software “Imaris” (version 9.9.0) (Oxford Instruments, Abingdon, UK).

[6] = synthetic peptide 0.4-112.5 µg/mL
[7] = 112.5 µg/mL, versus control without peptide

| Sequence | effect on S. aureus biofilm formation (in words) (S. aureus [1]) | turbidity (600 nm), K. oxytoca (K. oxytoca [2]) | turbidity (600 nm), S. epidermidis (S. epidermidis) | reduction of S. epidermidis biofilm formation over concentration range (S. epidermidis RP62A) | turbidity (600 nm), P. aeruginosa (P. aeruginosa) | effect on K. oxytoca biofilm formation (in words) (K. oxytoca [3]; [6]) | turbidity (600 nm), S. aureus (S. aureus [4]) | effect on P. aeruginosa biofilm formation (in words) (P. aeruginosa PAO1) | effect on planktonic growth (in words), high concentration [5] | effect on S. epidermidis biofilm formation (in words) (S. epidermidis RP62A) | reduction of K. oxytoca biofilm formation at 112.5 µg/mL (K. oxytoca [3]; versus biofilm control (100%)) | biofilm thickness (K. oxytoca M5aI) | biofilm volume (K. oxytoca M5aI) | other results |
| --- | --- | --- | --- | --- | --- | --- | --- | --- | --- | --- | --- | --- | --- | --- |
| THSTMNFELHQRSIQSCSPKLL [BiP_Aa_4, synthetic peptide from sORF of A. aurita EST clone 127_8E] | limited effect; also recorded: could not interfere with biofilm formation | 1.219 | 1.386 | 23–47% | 1.281 | limited effect | 1.347 | limited effect | did not significantly inhibit planktonic growth |  |  |  |  |  |
| GRTTLYKKVGFFFFF [BiP_Ml_3, synthetic peptide from sORF of M. leidyi EST clone 010_9A] | no significant effect; also recorded: could not interfere with biofilm formation | 1.255 | 1.367 |  | 1.255 | no significant effect | 1.345 | no significant effect; also recorded: slight interference |  | growth increase at low peptide doses |  |  |  | reduction of S. epidermidis biofilm formation at 112.5 µg/mL (S. epidermidis RP62A; synthetic peptide at highest concentration 112.5 µg/mL, versus biofilm control (100%)): 38%; reduction of planktonic growth of P. aeruginosa (P. aeruginosa; [7]): 1.5–5%; reduction of planktonic growth of S. aureus (S. aureus [4]; [7]): 1.5–5% |
| VRLIVAVRIWRR [IDR-1018, 12 amino acids' cationic AMP, biofilm-preventing control peptide derived from bovine Bactenecin, reference compound] |  | 1.187 | 1.203 |  | 1.23 |  | 1.036 | no interference; also recorded: almost unaffected | significantly reduced the planktonic growth of all strains | only affected to a minor extent | 70% | 6 ± 2 µm | 32 ± 16 µm^3 | peptide concentration causing cell death of the biofilm cells (biofilm cells; higher concentrations): 10 µg/mL; peptide concentration inducing dispersal of cells from biofilms (biofilm cells; very low peptide concentrations): 0.8 µg/mL; MIC (planktonic cells): 19 µg/mL; reduction of K. oxytoca biofilm formation at 3.5 µg/mL (K. oxytoca [3]; synthetic peptide 3.5 µg/mL, versus biofilm control (100%), on average): 30%; reduction of K. oxytoca biofilm formation over concentration range (K. oxytoca [3]; synthetic peptide 0.4-112.5 µg/mL, maximum or overall reduction): 50%; effect on planktonic growth (in words), low concentration ([5]; 3.5 µg/mL, all pathogens): no effect was revealed |
| TNFTRKFPVINSSPHQWYLKD [BiP_Aa_6, synthetic peptide from sORF of A. aurita EST clone 127_8H] |  | 1.2508 | 1.393 | 43% | 1.284 |  | 1.38 | initially increased and then gradually decreased, approaching control levels | did not significantly inhibit planktonic growth |  | 26% | ≤ 8 ± 1 µm | 64 ± 36 µm^3 | reduction of S. aureus biofilm formation over concentration range (S. aureus [1]; maximum or overall reduction): 6–23% |
